In patent publication US10442767B2 (priority 2012, dated 2019):
Where two headings read alike, the source gives them in different places.

Columns and labels:
[1] = Parallel Artificial Membrane Permeability Assay (PAMPA); assay type: in vitro ADME
Experimental: In this experiment, the inventors included highly permeable verapamil and lowly permeable theophylline as controls.
Permeability studies were performed as previously described by Sugano, et al., 2011. A 96-well microplate (acceptor compartment) was filled with PBS containing 5% DMSO. A hydrophobic filter plate (donor compartment) was placed atop the buffer-filled plate and the filter surface was impregnated with 5 μL solution of porcine polar brain lipids (Avanti Lipids) in dodecane (1% w/v). 150 μL of the test compounds dissolved in PBS containing 5% DMSO (compound concentration 0.5 mM) was added to the donor compartment and covered. The only barrier between the two compartments was the artificial BBB membrane containing the porcine polar brain lipids. The whole system was incubated for several hours.

[2] = system: C57Bl/6J mice; experiment: In vivo effects (tremor, seizures) after intraperitoneal injection; design: species or system mouse; details: i.p.; for Effect: N = 5
Experimental: A consequence of excessive K^+ channel blockage is the advent of seizures. 4-AP is known to cause seizures in mice at high doses.
At high doses, 4-AP causes tremors, muscle spasms and seizures.
10-week-old female C57Bl/6J mice were given an intraperitoneal injection of the drug under investigation and monitored continuously for 4 h. After 4 h no signs of drug effects could be observed. At least 72 h passed between injections to the same mice.

[3] = Stability in microsomes; assay type: in vitro ADME, CD1 mouse; details: mouse liver microsomes
Experimental: The stability of these drugs in mouse plasma and mouse liver microsomes was also tested. Liver microsomes contain large amounts of cytochrome P450 and can be used to estimate the metabolic stability of drugs.
study compounds were incubated at initial concentration of 1 μM with liver microsomes from CD1 mouse (0.04 mg/mL) in PBS in the presence or absence of enzyme cofactors (1.3 mM NADP^+, 3.3 mM MgCl2, 3.3 mM G6P and 1 U/ml G6PDH, 1 mM UDPGA and 4.7 μg/ml Alamethicin). After t=0, 20, 40 and 60 min, a sample was removed and the reaction was stopped by adding 1 volume of acetonitrile. The loss of compound was determined by LC-MS analysis comparing the amount of compound in the sample to the respective reference samples (without cofactors). To ensure that the assay is reliable, Propanolol and Verapamil were included as control compounds. […]
The Hill equation used to fit the data from the voltage-clamp and the optic nerve experiments was as follows: y=y0+(yf−y0)*x^n/(k^n+x^n); where n refers to the Hill coefficient (typically 1±0.1) and k refers to EC50 or IC50. y0 and yf refers to the origin and final ordinate values and were fixed at 1±0.1 or 0±0.1 depending on the experiment. […] The half-life (t1/2) in the stability and pharmacokinetic experiments was calculated by fitting the data to the equation Ct=C0*exp(−k*t) where C0=initial concentration, Ct=concentration at time t, and k=ln 2/t1/2. […]

[4] = Pharmacokinetic study after single intravenous dose; assay type: in vivo, mice (CD-1); details: female, CD-1, mouse, mice, i.v. 0.75 mg/kg
Experimental: 39 mice (CD-1, 6-weeks old, female) were used in the study. […] The drugs were dissolved in PBS and administered via tail-vein injection to achieve a dose of 0.75 mg/kg of body weight. At specific times post injection (10 min, 30 min, 1 h, 2 h, 4 h and 24 h) blood and brain samples were collected. Blood samples were transferred into tubes containing 5% EDTA, stored on ice, and centrifuged (4° C., 1000 rpm, 15 min). Plasma (upper phase) was transferred to a new tube and stored at −80° C. for further analysis. Brain tissue samples were collected after intracardial perfusion of the mouse. Brain tissue samples were stored at −80° C. for further analysis. Drug quantification in plasma: Briefly, to a 1.5 mL Eppendorf tube containing 50 μl of plasma, 200 μl of ice-cold acetonitrile containing 1,000 ng/ml Progesterone (used as internal standard) was added in order to precipitate the proteins. The sample was vortexed, mixed and centrifuged at 4000×g for 10 min at 4° C. to remove precipitates. 140 μl supernatant was collected and transferred to a 500 μl 96-well polypropylene plate and covered using silicone plate mat. 40 μl of sample was injected in into LC-MS. Using the same sample preparation procedure 11 standard solutions ranging from 50 ng/mL to 100 μg/mL were prepared, analyzed by LC-MS and used as a calibration curve to correlate peak area of the samples to concentration. Drug quantification in brain: the mouse brain was weighted and 1 mL of water per 400 mg of tissue was added. The sample was homogenized using an electric tissue homogenizer. To a 1.5 mL Eppendorf tube containing 50 μl of homogenized sample, 200 μl of ice-cold acetonitrile containing 1000 ng/ml Demeclocycline (used as internal standard) was added in order to precipitate the proteins. The sample was vortexed, mixed and centrifuged at 4000×g for 10 min at 4° C. to remove precipitates. 140 μl supernatant was collected and transferred to a 500 μl 96-well polypropylene plate and covered using silicone plate mat. 40 μl of each sample was injected into LC-MS. Using the same sample preparation procedure 11 standard solutions ranging from 50 ng/mL to 100 μg/mL were prepared, analyzed by LC-MS and used as a calibration curve to correlate peak area of the samples to concentration.
The Hill equation used to fit the data from the voltage-clamp and the optic nerve experiments was as follows: y=y0+(yf−y0)*x^n/(k^n+x^n); where n refers to the Hill coefficient (typically 1±0.1) and k refers to EC50 or IC50. y0 and yf refers to the origin and final ordinate values and were fixed at 1±0.1 or 0±0.1 depending on the experiment. EC50=10^<log EC50>; where <log EC50>=average of log EC50 values from all experiments with the same drug. 95% C.I.=[Upper Limit . . . Lower Limit]; where U.L.=10^(log EC50+s.d.) and L.L.=10^(log EC50−s.d.). The half-life (t1/2) in the stability and pharmacokinetic experiments was calculated by fitting the data to the equation Ct=C0*exp(−k*t) where C0=initial concentration, Ct=concentration at time t, and k=ln 2/t1/2. Student t-test was used to compare results and P<0.05 was considered significant.

Question: For Nc1ccncc1F [3-F-4-AP, 3-fluoro-4-aminopyridine], which “times more permeable than 4-AP” value [1] is on record?
Answer: 6.6 times

Question: What about the “Pe: permeability coefficient across artificial membrane” value ([1]; porcine polar brain lipids, 0.5 mM, 16 h, n=3) of the same molecule?
Answer: 15.6 ± 0.6 nm/s

Question: What about the Effect ([2]; 30 μmol/kg) of the same molecule?
Answer: Mouse quiet

Question: And the Effect ([2]; 60 μmol/kg)?
Answer: Mild tremor, mouse quiet

Question: What about the “duration of effect (tremors, seizures or jerks)” value ([2]; 90 μmol/kg) of the same molecule?
Answer: ~30 min

Question: And the “mice died of seizure” value ([2]; 90 μmol/kg)?
Answer: 1 of 5 mice died of seizure

Question: What about the “start of tremors and seizures post-injection” value ([2]; 90 μmol/kg (highest dose)) of the same molecule?
Answer: 10 s

Question: And the Effect ([2]; 90 μmol/kg)?
Answer: Severe tremors and seizures that start

Question: What about the “in vivo potency compared with 4-AP” value ([2]; mice) of the same molecule?
Answer: very similar potency to that of 4-AP

Question: What about the “times more stable than 4-AP in microsomes” value [3] of the same molecule?
Answer: 2.7 times

Question: And the Kp ([4]; brain and plasma, read-out: Cbrain/Cplasma (maximum in the brain over maximum in plasma))?
Answer: 0.214 ± 0.17

Question: And the half-life ([4]; brain, read-out: half-life in brain (converted))?
Answer: 85.8 min

Question: And the half-life ([4]; plasma, read-out: half-life in plasma (converted))?
Answer: 20.4 min
